Laboratory results: the OPERA property sets (Mansouri et al. 2018)

Details: not given

| SMILES | melting point | boiling point | log10 Koc (L/kg) | ready biodegradability | log10 vapour pressure (mmHg) | log10 Koa | log10 Henry constant (atm·m³/mol) | log10 biodegradation half-life (days) |
| --- | --- | --- | --- | --- | --- | --- | --- | --- |
| CC(C)(C)C(=O)NNCc1ccccc1 | 68.5 °C |  |  |  |  |  |  |  |
| CCN1CCN(C(=O)N[C@@H](C(=O)N[C@@H]2C(=O)N3C(C(=O)O)=C(CSc4nnnn4C)CS[C@H]23)c2ccc(O)cc2)C(=O)C1=O | 169 °C |  |  |  |  |  |  |  |
| Nc1ccc(-c2ccc(N)c(Cl)c2)cc1Cl | 132 °C | 368 °C | 4.35 | not readily biodegradable |  |  |  |  |
| CCC1(CC)C(=O)CCNC1=O | 104 °C |  |  |  |  |  |  |  |
| Cc1cc2nc3c(=O)[nH]c(=O)nc-3n(C)c2cc1C | 320 °C |  |  |  |  |  |  |  |
| C[C@@H](CO)NC(=O)[C@@H]1C=C2c3cccc4[nH]cc(c34)C[C@H]2N(C)C1 | 162 °C |  |  |  |  |  |  |  |
| Clc1cc(Cl)c(OCC#CI)cc1Cl | 114 °C |  |  |  |  |  |  |  |
| CCC(=O)OCc1ccccc1 |  | 220 °C |  |  |  |  |  |  |
| O=CNc1ccccc1 | 46 °C | 271 °C |  |  | -2.45 |  |  |  |
| C#CC | -103 °C | -23.2 °C |  |  | 3.63 |  |  |  |
| COP(=S)(OC)Oc1ccc(SC)c(C)c1 | 7.5 °C |  | 3.18 |  | -4.98 |  |  |  |
| CCCCOC(=O)C(C)Oc1ccc(Oc2ccc(C(F)(F)F)cn2)cc1 (stereo not drawn) | 9 °C |  | 3.62 |  | -6.5 |  |  |  |
| CCOc1ccccc1NC(C)=O | 79 °C |  |  |  |  |  |  |  |
| Cc1c(C)c(C)c(N)c(C)c1C | 152 °C | 278 °C |  |  |  |  |  |  |
| COc1ccc2c3c1O[C@H]1[C@@H](O)C=C[C@H]4[C@@H](C2)[N@@+](C)([O-])CC[C@@]341 | 232 °C |  |  |  |  |  |  |  |
| S=C(SSSSC(=S)N1CCCCC1)N1CCCCC1 |  |  |  | not readily biodegradable |  |  |  |  |
| CCCC(O)CC (stereo not drawn) |  |  |  | not readily biodegradable |  |  |  |  |
| COC(=O)[C@@H](C)N(C(=O)c1ccccc1)c1ccc(F)c(Cl)c1 |  |  |  |  | -5.12 |  |  |  |
| C=CCCCC | -140 °C | 63.4 °C |  | readily biodegradable | 2.26 | 2.41 |  |  |
| OC(c1ccccc1)(c1ccccc1)c1ccccc1 | 164 °C | 380 °C |  |  |  |  |  |  |
| CC1=NOC(=O)/C1=N\Nc1ccccc1Cl | 168 °C |  |  |  |  |  |  |  |
| CC(=O)Nc1ccc(O)cc1 | 170 °C |  |  | readily biodegradable |  |  |  |  |
| N#C/C=C/C#N | 96.8 °C | 186 °C |  |  |  |  |  |  |
| O=COCC=Cc1ccccc1 | 0 °C | 252 °C |  |  |  |  |  |  |

| SMILES | melting point | boiling point | log10 Koc (L/kg) | ready biodegradability | log10 vapour pressure (mmHg) | log10 Koa | log10 Henry constant (atm·m³/mol) | log10 biodegradation half-life (days) |
| --- | --- | --- | --- | --- | --- | --- | --- | --- |
| CC(C)/N=c1/cc2n(-c3ccc(Cl)cc3)c3ccccc3nc-2cc1Nc1ccc(Cl)cc1 | 211 °C |  |  |  |  |  |  |  |
| C#CC1(O)CCCCC1 | 31.5 °C | 174 °C |  |  |  |  |  |  |
| C[C@H]1[C@H]2CC[C@H]3[C@@H]4CC=C5C[C@@H](N(C)C)CC[C@]5(C)[C@H]4CC[C@]23CN1C | 126 °C |  |  |  |  |  |  |  |
| CCC(C)S (stereo not drawn) | -165 °C | 84.5 °C |  |  | 1.91 |  |  |  |
| CCOc1cc(OCC)cc(OCC)c1 | 43.5 °C |  |  |  |  |  |  |  |
| c1cc2c(cc1O[C@H]1OC[C@H]3[C@@H]1CO[C@@H]3c1ccc3c(c1)OCO3)OCO2 | 93.5 °C |  |  |  |  |  |  |  |
| c1ccc(-c2ccc(-c3ccc(-c4ccccc4)cc3)cc2)cc1 | 320 °C |  |  |  |  |  |  |  |
| CCN(CC)C(=O)/C(Cl)=C(/C)OP(=O)(OC)OC | -45 °C |  |  |  | -4.78 |  |  |  |
| CC(C)Nc1nc(N)nc(Cl)n1 | 133 °C |  |  |  |  |  |  |  |
| CCCCN=C=S |  | 168 °C |  |  |  |  |  |  |
| Clc1cc(Cl)c2c(c1Cl)Oc1ccccc1O2 | 128 °C |  |  |  | -6.12 | 8.97 | -4.44 |  |
| O=C(O)c1ccc2c(c1)C(=O)c1ccccc1-2 | 341 °C |  |  |  |  |  |  |  |
| CCOC(=O)c1cc2ccccc2o1 | 30.5 °C | 276 °C |  |  |  |  |  |  |
| CCOC(=O)C(c1c(O)c2ccccc2oc1=O)c1c(O)c2ccccc2oc1=O | 154 °C |  |  |  |  |  |  |  |
| Cn1c(=O)c2c(ncn2CN2CCOCC2)n(C)c1=O | 177 °C |  |  |  |  |  |  |  |
| O=C(O)CCCl | 41 °C | 156 °C |  |  |  |  |  |  |
| N#CCO |  | 183 °C |  |  |  |  |  |  |
| CC(C)=C1CC[C@@H](C)CC1=O |  | 224 °C |  |  | -0.91 |  |  |  |
| O=Cc1cc(Cl)ccc1O | 100 °C |  |  |  |  |  |  |  |
| CCN(CC)C(=O)c1ccc(O)c(OC)c1 | 95 °C |  |  |  |  |  |  |  |
| ClCc1cccc(CCl)c1 | 34.2 °C | 252 °C |  |  |  |  |  |  |
| CCO[Si](CCC#N)(OCC)OCC |  | 224 °C |  |  |  |  |  |  |
| CCc1cccc(N)c1 | -64 °C | 214 °C |  |  |  |  |  |  |
| O=C(c1ccc(O)cc1)c1ccc(O)c(O)c1O |  |  |  | not readily biodegradable |  |  |  |  |

| SMILES | melting point | boiling point | log10 Koc (L/kg) | ready biodegradability | log10 vapour pressure (mmHg) | log10 Koa | log10 Henry constant (atm·m³/mol) | log10 biodegradation half-life (days) |
| --- | --- | --- | --- | --- | --- | --- | --- | --- |
| Fc1ccccc1F | -34 °C | 94 °C |  | not readily biodegradable | 1.73 |  |  |  |
| C=C1N(C)c2ccccc2C1(C)C |  | 248 °C |  |  |  |  |  |  |
| COC(=O)c1cccc(N)c1 | 39 °C |  |  |  |  |  |  |  |
| CC(C)(C)N(NC(=O)c1ccccc1)C(=O)c1ccc(Cl)cc1Cl | 134 °C |  |  |  |  |  |  |  |
| CC(C)COC(=O)C(C)C | -80.7 °C | 149 °C |  |  | 0.636 |  |  |  |
| O=[N+]([O-])c1cc(Cl)cc(Cl)c1O | 122 °C |  |  | not readily biodegradable |  |  |  |  |
| COc1cccc(CO)c1O | 61.5 °C |  |  |  |  |  |  |  |
| Cc1ccccc1C(=O)Nc1cccc(OC(C)C)c1 | 92.5 °C |  |  |  | -6.38 |  |  |  |
| CCCCCOC(=O)CCC | -73.2 °C | 186 °C |  |  |  |  |  |  |
| C=Cc1ccc(Br)cc1 | 7.7 °C | 212 °C |  |  | -0.108 |  |  |  |
| CCCCCCOc1ccc(O)cc1 | 46 °C |  |  |  |  |  |  |  |
| Brc1ccccn1 |  | 195 °C |  |  | -0.114 |  |  |  |
| C/C(=N\C#N)N(C)Cc1ccc(Cl)nc1 | 98.9 °C |  |  |  |  |  |  |  |
| c1ccc2n[nH]nc2c1 |  |  |  | not readily biodegradable |  |  |  |  |
| c1ccc(COCc2ccccc2)cc1 | 3.6 °C | 298 °C |  | not readily biodegradable | -2.99 |  |  |  |
| C=Cc1c(C)cc(C)cc1C | -37 °C | 209 °C |  |  |  |  |  |  |
| COc1ccc(C=O)cc1 | 0 °C | 248 °C |  | readily biodegradable | -1.48 |  |  |  |
| CSc1nc(NC(C)C)nc(NC(C)C)n1 | 119 °C |  | 2.85 |  | -5.91 |  |  |  |
| CC(C)(C)[C@@H](O)[C@H](Cc1ccc(Cl)cc1Cl)n1cncn1 | 148 °C |  |  |  |  |  |  |  |
| NNC(=O)Nc1ccccc1 | 128 °C |  |  |  |  |  |  |  |
| CNC[C@H](O)c1ccc(O)c(O)c1.O=C(O)[C@H](O)[C@@H](O)C(=O)O | 150 °C |  |  |  |  |  |  |  |
| O=C(O)c1c(Br)c(O)c(O)c(O)c1Br | 150 °C |  |  |  |  |  |  |  |
| CCCCCCCC/C=C\CCCCCCCC(=O)O |  | 360 °C |  | readily biodegradable | -5.85 |  |  |  |
| O=[N+]([O-])c1ccc(Oc2ccc(N=C=S)cc2)cc1 | 110 °C |  |  |  |  |  |  |  |

| SMILES | melting point | boiling point | log10 Koc (L/kg) | ready biodegradability | log10 vapour pressure (mmHg) | log10 Koa | log10 Henry constant (atm·m³/mol) | log10 biodegradation half-life (days) |
| --- | --- | --- | --- | --- | --- | --- | --- | --- |
| O=S(=O)(c1ccc(Cl)cc1)c1ccc(Cl)cc1 | 148 °C |  |  | not readily biodegradable |  |  |  |  |
| CCOc1ccccc1C |  | 184 °C |  |  |  |  |  |  |
| C#CC(C)(C)NC(=O)c1ccc(Br)cc1 |  |  | 2.01 |  |  |  |  |  |
| C[C@@H](O)C(C)(C)O |  | 175 °C |  |  |  |  |  |  |
| OCC(Br)(Br)Br | 81 °C |  |  |  |  |  |  |  |
| COc1ccc(NC(C)=O)cc1 | 131 °C | 335 °C | 1.4 |  |  |  |  |  |
| CN(C)CCC(O)(c1ccccc1)c1ccccc1Cl (stereo not drawn) | 120 °C |  |  |  |  |  |  |  |
| NS(=O)(=O)c1ccc(S(=O)(=O)CCO)cc1 | 165 °C |  |  |  |  |  |  |  |
| O=C1CN(N=Cc2ccc(-c3ccc([N+](=O)[O-])cc3)o2)C(=O)N1 | 280 °C |  |  |  |  |  |  |  |
| CC(C)(CC(=O)O)CC(=O)O | 104 °C |  |  |  |  |  |  |  |
| NS(=O)(=O)c1ccc(SCCCCCO)cc1 | 103 °C |  |  |  |  |  |  |  |
| COc1ccc(C)cc1OC | 24 °C | 220 °C |  |  |  |  |  |  |
| CC[C@H](C)CBr |  | 122 °C |  |  |  |  |  |  |
| c1ccc2c(c1)ccc1cc3c(ccc4ccccc43)cc12 | 270 °C | 524 °C | 6.22 | not readily biodegradable | -9.02 |  |  | 2.62 |
| CC(C)CC(N)=O | 137 °C | 226 °C |  |  |  |  |  |  |
| C[Si](C)(C)Cl | -40 °C | 60 °C |  |  | 2.37 |  |  |  |
| c1ccc2c(c1)CCc1ccccc1-2 | 34.5 °C |  |  |  | -3.22 |  |  |  |
| Cc1ccccc1-c1ccccc1C | 19.5 °C | 256 °C |  |  |  |  |  |  |
| CCc1ccc(C(=O)O)cc1 | 112 °C |  |  |  |  |  |  |  |
| O=C(O)/C=C/c1ccccc1C(F)(F)F | 206 °C |  |  |  |  |  |  |  |
| CCC(CO)(CO)[N+](=O)[O-] | 57.5 °C |  |  |  |  |  |  |  |
| Clc1ccc(-c2ccccc2)cc1 | 78.8 °C | 293 °C |  | readily biodegradable | -1.98 | 6.8 | -3.24 |  |
| C[Si](Cl)(Cl)c1ccccc1 |  | 206 °C |  |  | -0.312 |  |  |  |
| CC(=O)Cc1ccccc1 | -15 °C | 216 °C |  |  |  |  |  |  |

Same assay, conditions: fish

| SMILES | log10 BCF | log10 biotransformation half-life (days) |
| --- | --- | --- |
| ClC1=C(Cl)C2(Cl)C=CC1(Cl)C2(Cl)Cl | 3.81 |  |
| Nc1ccc(-c2ccc(N)c(Cl)c2)cc1Cl | 2.16 | -0.13 |
| COP(=S)(OC)Oc1ccc(SC)c(C)c1 | 2.52 | -0.36 |
| S=C(SSSSC(=S)N1CCCCC1)N1CCCCC1 | 1.23 |  |
| Clc1cc(Cl)c2c(c1Cl)Oc1ccccc1O2 | 2.75 | 0.43 |
| O=[N+]([O-])c1cc(Cl)cc(Cl)c1O | 1.32 |  |
| c1ccc(COCc2ccccc2)cc1 | 2.43 | 0.63 |
| c1ccc2c(c1)ccc1cc3c(ccc4ccccc43)cc12 |  | 0.21 |
